Results as given in US8420810B2, “Bicyclic heterocyclic compound” (Ono Pharmaceutical, Co., Ltd., priority 2007, dated 2013).

Columns and labels:
[1] = target: T1, human CRF receptor I (Homo sapiens, UniProt P34998); assay: Binding assay (125I-CRF, membrane fraction); conditions: 125I-CRF 0.25 nM, membrane fraction of CHO-K1 cells expressing human CRF receptor I, room temperature 2 hours
T1 construct: expressed in transfected cells; host or cells: CHO-K1
T1 sequence (P34998 24-415): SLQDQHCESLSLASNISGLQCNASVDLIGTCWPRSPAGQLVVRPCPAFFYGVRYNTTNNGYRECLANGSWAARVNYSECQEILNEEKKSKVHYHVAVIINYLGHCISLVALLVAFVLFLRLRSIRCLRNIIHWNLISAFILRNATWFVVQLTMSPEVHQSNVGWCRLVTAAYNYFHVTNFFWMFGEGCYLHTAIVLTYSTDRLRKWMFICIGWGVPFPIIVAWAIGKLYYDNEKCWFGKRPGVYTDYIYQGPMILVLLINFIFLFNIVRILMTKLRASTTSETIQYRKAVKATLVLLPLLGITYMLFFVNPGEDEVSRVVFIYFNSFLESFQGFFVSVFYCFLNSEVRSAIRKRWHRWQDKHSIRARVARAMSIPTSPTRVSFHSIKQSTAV
Protocol: The forced-expression cell strain of the human CRF receptor I (parent strain is CHO-K1 cell) was cultured until the cell was confluent and collected with a scraper. The collected cells were washed twice with PBS, and were suspended with an ice-colded binding assay buffer (Tris-HCl (50 mM, pH 7.0), EDTA (2 mM, pH 8.0), and MgCl2 (10 mM)). After fractured with a dounce-type homogenizer, the suspended cells were centrifuged at 10,000 g, and a membrane fraction was collected. The collected membrane fraction was resuspended with a little amount of the binding assay buffer, thereafter diluted with the binding assay buffer so as to have a concentration of 1 mg/mL. The obtained membrane fraction was used for a binding assay.
^125I-CRF was diluted with the binding assay buffer so as to have a concentration of 0.5 nM, whereby 50 μL of the diluted ^125I-CRF was added to a siliconized 1.5 mL tube. Next, evaluation compounds diluted at appropriate times, DMSO (for general binding), or 100 μM of CRF (for non-specific binding), was added to a […]. Finally, 50 μL of the membrane fraction was added thereto and the reaction was started (final concentration of ^125I-CRF was 0.25 nM). The tube was incubated at room temperature for 2 hours. After the reaction, the tube was centrifuged at 20,000 g in order to collect the membrane fraction. The supernatant was discarded, and the pellet was washed with an ice-colded PBS/0.01% TritonX-100. A membrane binding count was measured using a y counter. The specific binding count was obtained by subtracting the non-specific count from the measured count.

[2] = target: T1, human CRF receptor I; assay: Receptor antagonistic activity (cyclic AMP assay); format: cell-based; conditions: accumulated cyclic AMP, human/rat CRF stimulation, cells expressing human CRF receptor I, 37° C. 15 minutes
Protocol: The forced expression cell strain of the human CRF receptor I was cultured at 37° C. under 5% carbon dioxide and 95% air by using a Ham's F-12 medium (F-12 nutrient mixture) containing 10% bovine fetal serum and 1% antibiotic substance-antifungal agent. On the previous day before the cyclic AMP was measured, the cells were inoculated into a 96-well plate in an amount of 1×10^4 cell/well. On the measurement day, the cells were washed twice with a Ham's F-12 medium, whereby a solution of Ham's F-12 medium/1 mM 3-isobutyl-1-methylxanthine (assay medium) (178 μL) was added to each well. After the incubation at 37° C. for 15 minutes, the solutions (2 μL) of evaluation compound in various concentrations were added thereto, or DMSO (2 μL) was added to a CRF group and a blank group. An assay medium (20 μL) containing 10 nM human/rat CRF was added to wells of an evaluation compound group and the CRF group. An assay medium (20 μL) containing 0.00001% acetic acid was added to the blank group. Each group was further incubated at 37° C. for 15 minutes. The supernatant was removed and ice-colded to stop the reaction. Note that the reactions of 2 wells were the same in all reactions. The measurement for accumulated cyclic AMP amount in cells was carried out by using a cyclic AMP Biotrak enzyme immunoassay system (manufactured by GE Healthcare). The accumulated cyclic AMP amounts were calculated by subtracting mean values of corresponding 2 wells in the blank group from that of 2 wells. The IC50 values were calculated with non-linear regression analysis by defining logarithm concentration of the evaluation compound as independent variable and an accumulated cyclic AMP amount as dependent variable.

[3] = test system: SD rats; assay: Elevated plus maze test with swim-stressed rat; format: in vivo; conditions: orally 1 hour before the test
Protocol: 2 open arms with the same lengths (50×10 cm) and 2 close arms (a 30 cm wall was provided) with the same lengths (50×10 cm) were arranged in orthogonal manner at a height of 50 cm from the floor to provide an elevated crossroad maze system. In 70 cm above the both open arms, white light was provided, whereby illuminance was maintained at constant.
SD rats of 7 weeks of age (CHARLES RIVER LABORATORIES JAPAN) were forcedly made to swim for 120 seconds in a pool (40×30×38 cm) at 22° C. of water temperature and 25 cm of water depth. After 9 minutes of soaking stress loading, the rat was put on the center of the system. The activity for 5 minutes of the rat was analyzed with an automatic activity-tracking analysis system (EthoVision Version 3.0, Noldus Information Technology) to calculate the dwell time (second) on the open arm.
Note that no soaking stress was loaded on the control group. In addition, 20% Wellsolve (registered trademark) (5 mL/kg) was orally administered to the vehicle group and evaluation compounds in various concentrations were orally administrated to the evaluation compound administration group 1 hour before the test.

[4] = test system: rats; assay: Rat learned helplessness test; format: in vivo; conditions: oral, once a day for 6 days and 1 hour before the shock training
Protocol: The learned helplessness test was carried out using a two-way shuttle box which is partitioned into two by a gate which can be opened and closed so that travel to right and left becomes possible. On the 1st day of the learned helplessness test, rats were put into the device under un-escapable condition by closing the gate, and a total of 90 times of an electric shock (0.5 mA) was applied to them through a floor grid for 10 seconds at 2 seconds' intervals (shock training). Rats of the control group were left as they are for the same period of time (for 18 minutes) without applying the electric shock. After 24 hours of the shock training, rats were put into the device under escapable condition by opening the gate to carry out an escape test. After 5 minutes of acclimatization, a light stimulus and a sound stimulus (conditioning stimuli) were applied simultaneously for 5 seconds, and subsequent electric shock (un-conditioning stimulus) was applied for 10 seconds. This was regarded as one trial. A case of continuously receiving the electric shock without escape was regarded as escape failure. A total of 40 trials were carried out by setting the interval between respective trials to 5 seconds, and frequency of the escape failure was recorded.
In this connection, the vehicle (20% solvent) and evaluation compound were repeatedly administered once a day for 6 days and further orally administered 1 hour before the shock training.

[5] = Light stability test; format: physicochemical; conditions: 2500 Lux (D65 lamp), 25° C., HPLC
Protocol: After weighing 5 mg of an evaluation compound, it was put into a test tube made of glass which was then sealed with a stop cock. Said test tube was stored at 25° C. for 11 days or 20 days under irradiation of 2500 Lux (a D65 lamp was used as the light source). The evaluation compound after 11 days or 20 days of irradiation was determined by an HPLC apparatus. Survival rate (%) of the evaluation compound was calculated by the following formula. Survival rate of evaluation compound (%)=amount of evaluation compound after 11 days or 20 days of irradiation (mg)/weighed value of evaluation compound (mg)×100 <HPLC Conditions> • Apparatus: A 1200 series (manufactured by Agilent Technologies, Inc.), • Column: YMC-Pack C4, A-802, 150×4.6 mm I.D., S-5 μm, 120 A (manufactured by YMC), • Mobile phase: A: water, B: acetonitrile, A/B: 35/65, • Column temperature: room temperature, • Flow rate: 1.0 mL/min.

SMILES	IC50 [1]	IC50 [2]	residual ratio after 20 days [5]	mean dwell time on the open arm compared to that of the vehicle group [3]	mean dwell time on the open arm compared to that of the vehicle group ([3]; 10 mg/kg)	increase of the frequency of escape failure for the vehicle group ([4]; 10 mg/kg)	increase of the frequency of escape failure for the vehicle group ([4]; 3 mg/kg)
CCC(CC)c1cc(C)n2nc(-c3c(C)nc(N(C)C)nc3C)n(C)c(=O)c12 [8(27), 2-[2-(dimethylamino)-4,6-dimethyl-5-pyrimidinyl]-5-(1-ethylpropyl)-3,7-dimethylpyrrolo[2,1-f][1,2,4]triazin-4(3H)-one]	14.7 nM	9.4 nM					
CCC(CC)c1cc(C)n2nc(-c3ccc(OC)cc3C)n(CC(N)=O)c(=O)c12 [8(38), 2-[5-(1-ethylpropyl)-2-(4-methoxy-2-methylphenyl)-7-methyl-4-oxopyrrolo[2,1-f][1,2,4]triazin-3(4H)-yl]acetamide]	23.5 nM	34.8 nM					
CCC(CC)c1cc(C)n2nc(-c3ccc(OC)cc3C)n(CCO)c(=O)c12 [8(44), 5-(1-ethylpropyl)-3-(2-hydroxyethyl)-2-(4-methoxy-2-methylphenyl)-7-methylpyrrolo[2,1-f][1,2,4]triazin-4(3H)-one]	7.8 nM	4.2 nM					
CCC(CC)c1cc(C)n2nc(-c3sc(N(C)C)nc3Cl)n(C)c(=O)c12 [8(48), 2-[4-chloro-2-(dimethylamino)-1,3-thiazol-5-yl]-5-(1-ethylpropyl)-3,7-dimethylpyrrolo[2,1-f][1,2,4]triazin-4(3H)-one]	7.2 nM	1.2 nM					
CCCC(C)c1cc(C)n2nc(-c3cnc(OC(F)F)cc3C)n(C)c(=O)c12 (stereo not drawn) [28(10), 2-[6-(difluoromethoxy)-4-methyl-3-pyridinyl]-3,7-dimethyl-5-(1-methylbutyl)pyrrolo[2,1-f][1,2,4]triazin-4(3H)-one]	20.7 nM	17.1 nM		favorably elongated			
CCn1c(-c2ccc(SC)cc2C)nn2c(C)cc(C(C)C)c2c1=O [Example 23, 3-ethyl-5-isopropyl-7-methyl-2-[2-methyl-4-(methylthio)phenyl]pyrrolo[2,1-f][1,2,4]triazin-4(3H)-one]	11 nM	9.6 nM			favorably elongated		

Now those with a lower IC50 [1], led by results:

IC50 [1]	IC50 [2]	residual ratio after 20 days [5]	SMILES	mean dwell time on the open arm compared to that of the vehicle group [3]	mean dwell time on the open arm compared to that of the vehicle group ([3]; 10 mg/kg)	increase of the frequency of escape failure for the vehicle group ([4]; 10 mg/kg)	increase of the frequency of escape failure for the vehicle group ([4]; 3 mg/kg)
6.1 nM	1.8 nM	99%	CCC(CC)c1cc(C)n2nc(-c3ccc(OC(F)(F)F)cc3Cl)n(C)c(=O)c12 [Example 8, 2-[2-chloro-4-(trifluoromethoxy)phenyl]-5-(1-ethylpropyl)-3,7-dimethylpyrrolo[2,1-f][1,2,4]triazin-4(3H)-one]		favorably elongated	significantly inhibited	
5.3 nM	3.2 nM		CCC(CC)c1cc(C)n2nc(-c3cnc(OC(F)F)cc3C)n(C)c(=O)c12 [Example 13, 2-[6-(difluoromethoxy)-4-methyl-3pyridinyl]-5-(1-ethylpropyl)-3,7-dimethylpyrrolo[2,1-f][1,2,4]triazin-4(3H)-one]				significantly inhibited
5.2 nM	5.8 nM		CCC(CC)c1cc(C)n2nc(-c3ncc(OC)cc3Cl)n(C)c(=O)c12 [Example 24(21), 2-(3-chloro-5-methoxy-2-pyridinyl)-5-(1-ethylpropyl)-3,7-dimethylpyrrolo[2,1-f][1,2,4]triazin-4(3H)-one]			significantly inhibited	
4.9 nM	3.5 nM		CCN(CC)c1cc(C)n2nc(-c3ccc(OC)cc3Cl)n(C)c(=O)c12 [Example 65, 2-(2-chloro-4-methoxyphenyl)-5-(diethylamino)-3,7-dimethylpyrrolo[2,1-f][1,2,4]triazin-4(3H)-one]				
3.6 nM	1.7 nM		CCc1cc(OC)ccc1-c1nn2c(C)cc(C(CC)CC)c2c(=O)n1C [8(25), 2-(2-ethyl-4-methoxyphenyl)-5-(1-ethylpropyl)-3,7-dimethylpyrrolo[2,1-f][1,2,4]triazin-4(3H)-one]	favorably elongated			
2.1 nM	1.9 nM		CCCC(C)c1cc(C)n2nc(-c3ccc(SC)cc3Cl)n(C)c(=O)c12 (stereo not drawn) [Example 22, 2-[2-chloro-4-(methylthio)phenyl]-3,7-dimethyl-5-(1-methylbutyl)pyrrolo[2,1-f][1,2,4]triazin-4(3H)-one]				significantly inhibited
